Test system: HepG2 tumor
Test: Anti-tumor activity in vivo, HepG2 mice model
Parameters: species or system CD-1 nu/nu mice
Settings: CHis6-rAGAP 1 and 2 mg/kg, 5-FU 25 mg/kg, every 2 days
Method: The CD-1 nu/nu mice (thymus removed, bodyweight 16˜18 g, half male and half female) were purchased from Shanghai Experiment Animal Center of Chinese Academy of Sciences. The mice were subcutaneously injected 5×10^6 HepG2 cells to make a model, when the tumor volume was grew to about 100 mm^3, the mice were randomized into four groups, 10 mice in each group, the experiment groups were respectively injected 1 mg/kg and 2 mg/kg of CHis6-rAGAP, the positive control group were injected 25 mg/kg of 5-FU, the negative control group was injected with normal saline, the volumes were all 200 μl/2 days. The change of tumor volume and bodyweight of the mice were determined every 2 days, after 18 days the mice were killed, and the tumor were taken out. […] In order to evaluate the influence of CHis6-rAGAP and 5-FU on life quality of the mice, change of mice bodyweight was also determined during the experiment. […] Furthermore, after 18 days of drug administration, there was no death case in the mice of CHis6-rAGAP administration group, whereas 40% of the mice in 5-FU group were dead.

O=c1[nH]cc(F)c(=O)[nH]1 [5-FU]
death of mice after 18 days of drug administration: 40%
influence on bodyweight of the mice (18 days): reduced significantly

Reference: patent US20170002048A1, “METHOD FOR PURIFYING AND RE[…] BODIES OF SCORPION TOXIN PROTEIN AND THEIR USE” (GUANGZHOU GLAM BIOTECHNOLOGY CO., LTD., priority 2015, published 2017)
